This is an account of results in US9423396B2, “Bodipy structure fluorescence probes for diverse biological applications” (National University of Singapore, priority 2011, dated 2016).

Molecules are shown by their SMILES.

The nature of this data set: Spectroscopic measurements (absorption, emission, quantum yield, extinction coefficient). It is filed as physicochemical. The following applies: BDNCA library; for Abs: absorption; for ε: extinction coefficient, in M-1 cm-1 (unit assumed); for Flu: fluorescence emission; for Flu-Abs: difference emission minus absorption.

Turning to `COc1cc(/C=C/C2=[N+]3C(=C(c4ccc(NC(=O)CCl)cc4)c4cccn4[B-]3(F)F)C(C)=C2)c(OCc2ccccc2)cc1OC` [BDNCA-223], the “Qunt. Yield” value is reported as “weak”, the Abs turned out to be 583 nm, the ε is on record as 59,863 and the Flu result is reported as “weak”.
In the case of `COc1cc(Br)cc(/C=C/C2=[N+]3C(=C(c4ccc(NC(=O)CCl)cc4)c4cccn4[B-]3(F)F)C(C)=C2)c1OC` [BDNCA-228], the “Qunt. Yield” value stood at 0.13, the Abs is 558 nm, the Flu-Abs is 19 and the ε is on record as 63,707. This compound also yielded a Flu of 577.
The matching figures for `CC1=CC(/C=C/c2cccc3c2OCO3)=[N+]2C1=C(c1ccc(NC(=O)CCl)cc1)c1cccn1[B-]2(F)F` [BDNCA-231]: 0.04, 559 nm, 19, 33,227 and 578.
Regarding `Cc1ccc(/C=C/c2cc(C)c3n2[B-](F)(F)[N+]2=CC=CC2=C3c2ccc(NC(=O)CCl)cc2)s1` [BDNCA-236], the “Qunt. Yield” value is 0.11, the Abs worked out at 577 nm, the Flu-Abs is 31 and the ε is recorded as 72,220. For the same compound, the Flu is recorded as 608.
Regarding `CC1=CC(/C=C/c2ccc(I)cc2)=[N+]2C1=C(c1ccc(NC(=O)CCl)cc1)c1cccn1[B-]2(F)F` [BDNCA-237], the “Qunt. Yield” value was found to be 0.13, the Abs was 560 nm, the Flu-Abs is reported as 19 and the ε was 70,572. Also, the Flu is 579.
The matching figures for `Cc1cc(/C=C/c2ccc(CO)o2)n2c1C(c1ccc(NC(=O)CCl)cc1)=C1C=CC=[N+]1[B-]2(F)F` [BDNCA-238]: 0.05, 575 nm, 33, 40,366 and 608.
As for `Cc1cc(/C=C/c2ccccc2OC(F)F)n2c1C(c1ccc(NC(=O)CCl)cc1)=C1C=CC=[N+]1[B-]2(F)F` [BDNCA-240], the “Qunt. Yield” value was found to be 0.08, the Abs is 554 nm, the Flu-Abs was 19 and the ε is given as 47,506. For the same compound, the Flu is listed as 573.
In the case of `COc1c(Br)cc(Br)cc1/C=C/C1=[N+]2C(=C(c3ccc(NC(=O)CCl)cc3)c3cccn3[B-]2(F)F)C(C)=C1` [BDNCA-241], the “Qunt. Yield” value was 0.09, the Abs turned out to be 558 nm, the Flu-Abs was 20 and the ε is 48,879. This compound also yielded a Flu of 578.
The matching figures for `COc1cc(/C=C/C2=[N+]3C(=C(c4ccc(NC(=O)CCl)cc4)c4cccn4[B-]3(F)F)C(C)=C2)cc(I)c1OC` [BDNCA-242]: 0.14, 561 nm, 25, 70,847 and 586.
The matching figures for `CC1=CC(/C=C/c2c(Cl)ccc(C)c2F)=[N+]2C1=C(c1ccc(NC(=O)CCl)cc1)c1cccn1[B-]2(F)F` [BDNCA-246]: 0.09, 554 nm, 19, 43,387 and 573.
As for `CC1=CC(/C=C/c2ccc(C)c(F)c2)=[N+]2C1=C(c1ccc(NC(=O)CCl)cc1)c1cccn1[B-]2(F)F` [BDNCA-249], the “Qunt. Yield” value was found to be 0.12, the Abs worked out at 556 nm, the Flu-Abs was 21 and the ε was 71,945. The compound also yielded a Flu of 577.
On the same counts, the results for `COc1ccc([N+](=O)[O-])cc1/C=C/C1=[N+]2C(=C(c3ccc(NC(=O)CCl)cc3)c3cccn3[B-]2(F)F)C(C)=C1` [BDNCA-250] are 0.12, 559 nm, 22, 53,547 and 581.
Consider `CCc1ccccc1/C=C/c1cc(C)c2n1[B-](F)(F)[N+]1=CC=CC1=C2c1ccc(NC(=O)CCl)cc1` [BDNCA-251], for which the “Qunt. Yield” value is 0.11, the Abs was determined as 555 nm, the Flu-Abs is 23 and the ε was 54,096. The Flu came to 578.
As to `CCc1ccc(/C=C/C2=[N+]3C(=C(c4ccc(NC(=O)CCl)cc4)c4cccn4[B-]3(F)F)C(C)=C2)cc1[N+](=O)[O-]` [BDNCA-252], the “Qunt. Yield” value was determined as 0.08, the Abs was determined as 556 nm, the Flu-Abs came out at 20 and the ε is on record as 57,666. This compound returned a Flu of 576.
The matching figures for `COc1cccc(F)c1/C=C/C1=[N+]2C(=C(c3ccc(NC(=O)CCl)cc3)c3cccn3[B-]2(F)F)C(C)=C1` [BDNCA-254]: 0.09, 559 nm, 22, 56,018 and 581.
For `Cc1ccc(/C=C/c2cc(C)c3n2[B-](F)(F)[N+]2=CC=CC2=C3c2ccc(NC(=O)CCl)cc2)cc1[N+](=O)[O-]` [BDNCA-255], the “Qunt. Yield” value is recorded as 0.10, the Abs amounted to 556 nm, the Flu-Abs is 19 and the ε is 62,059. This compound returned a Flu of 575.
As to `Cc1cc(/C=C/c2cccc(Br)c2O)n2c1C(c1ccc(NC(=O)CCl)cc1)=C1C=CC=[N+]1[B-]2(F)F` [BDNCA-256], the “Qunt. Yield” value worked out at 0.04, the Abs came out at 561 nm, the Flu-Abs is listed as 21 and the ε is recorded as 52,449. The Flu is given as 582.
Take `COc1cc(/C=C/C2=[N+]3C(=C(c4ccc(NC(=O)CCl)cc4)c4cccn4[B-]3(F)F)C(C)=C2)cc(Br)c1OC` [BDNCA-259]: the “Qunt. Yield” value worked out at 0.11, the Abs is 561 nm, the Flu-Abs is given as 21 and the ε is given as 49,428. The same compound displayed a Flu of 582.
The matching figures for `COc1ccc(/C=C/C2=[N+]3C(=C(c4ccc(NC(=O)CCl)cc4)c4cccn4[B-]3(F)F)C(C)=C2)cc1Br` [BDNCA-260]: 0.19, 564 nm, 27, 86,499 and 591.
The matching figures for `COc1ccc(/C=C/c2cc(C)c3n2[B-](F)(F)[N+]2=CC=CC2=C3c2ccc(NC(=O)CCl)cc2)c(Br)c1O` [BDNCA-261]: 0.01, 567 nm, 29, 49,703 and 596.
As for `CC1=CC(/C=C/c2c(Br)ccc3c2OCO3)=[N+]2C1=C(c1ccc(NC(=O)CCl)cc1)c1cccn1[B-]2(F)F` [BDNCA-262], the “Qunt. Yield” value amounted to 0.07, the Abs is 561 nm, the Flu-Abs was 21 and the ε is given as 68,924. Besides, the Flu is 582.
The matching figures for `CCCCc1ccc(/C=C/C2=[N+]3C(=C(c4ccc(NC(=O)CCl)cc4)c4cccn4[B-]3(F)F)C(C)=C2)cc1` [BDNCA-263]: 0.17, 559 nm, 23, 124,394 and 582.
The matching figures for `COc1cc(/C=C/C2=[N+]3C(=C(c4ccc(NC(=O)CCl)cc4)c4cccn4[B-]3(F)F)C(C)=C2)ccc1OCCBr` [BDNCA-268]: 0.12, 569 nm, 40, 54,371 and 609.
The matching figures for `COc1ccc(/C=C/C2=[N+]3C(=C(c4ccc(NC(=O)CCl)cc4)c4cccn4[B-]3(F)F)C(C)=C2)cc1Cl` [BDNCA-274]: 0.15, 563 nm, 27, 71,670 and 590.
`COc1cc(Cl)cc(/C=C/C2=[N+]3C(=C(c4ccc(NC(=O)CCl)cc4)c4cccn4[B-]3(F)F)C(C)=C2)c1O` [BDNCA-275]: the “Qunt. Yield” value was determined as 0.01, the Abs is 563 nm, the Flu-Abs is 22 and the ε is reported as 60,686. In addition, the Flu came out at 585.
`Cc1cc(/C=C/c2ccc(Oc3ccc(Cl)cc3)cc2)n2c1C(c1ccc(NC(=O)CCl)cc1)=C1C=CC=[N+]1[B-]2(F)F` [BDNCA-277]: the “Qunt. Yield” value worked out at 0.15, the Abs amounted to 561 nm, the Flu-Abs was determined as 24 and the ε is on record as 65,080. The same compound yielded a Flu of 585.
The matching figures for `COc1cccc(/C=C/C2=[N+]3C(=C(c4ccc(NC(=O)CCl)cc4)c4cccn4[B-]3(F)F)C(C)=C2)c1Cl` [BDNCA-281]: 0.14, 556 nm, 20, 79,908 and 576.
On to `COc1cc(Cl)cc(/C=C/C2=[N+]3C(=C(c4ccc(NC(=O)CCl)cc4)c4cccn4[B-]3(F)F)C(C)=C2)c1OC` [BDNCA-282], for which the “Qunt. Yield” value was 0.12, the Abs is 557 nm, the Flu-Abs stood at 20 and the ε is 52,723. The same compound displayed a Flu of 577.
The matching figures for `CC1=CC(/C=C/c2cccc(O)c2Cl)=[N+]2C1=C(c1ccc(NC(=O)CCl)cc1)c1cccn1[B-]2(F)F` [BDNCA-283]: 0.05, 556 nm, 18, 27,460 and 574.
On the same counts, the results for `CC1=CC(/C=C/c2ccc(-c3cccc(Cl)c3)o2)=[N+]2C1=C(c1ccc(NC(=O)CCl)cc1)c1cccn1[B-]2(F)F` [BDNCA-284] are 0.04, 595 nm, 42, 31,579 and 637.
